# Activity calls are given as the source filed them. The calls are words filed in the database; no cut-off is given here.
# How the values were obtained:
# A549 [1] = assay: Induction of apoptosis in human A549 cells assessed as reduction in pro caspase 3 level at 10 uM after 24 hrs by Western blot analysis; format: functional, cell-based
# A549 [2] = assay: Cytotoxicity against human A549 cells assessed as reduction in cell viability after 48 hrs by CCK8 assay; format: functional, cell-based
# Homo sapiens = organism: Homo sapiens; assay: Cytotoxicity against human […] cells assessed as reduction in cell viability after 48 hrs by CCK8 assay; format: functional, cell-based
# SGC-7901 = assay: Cytotoxicity against human SGC7901 cells assessed as reduction in cell viability after 48 hrs by CCK8 assay; format: functional, cell-based
# SW480 = assay: Cytotoxicity against human SW480 cells assessed as reduction in cell viability after 48 hrs by CCK8 assay; format: functional, cell-based
# A549 [3] = assay: Induction of apoptosis in human A549 cells assessed as cell shrinkage at 10 uM after 48 hrs by Annexin V-FITC/propidium iodide staining based laser scanning confocal microscopic analysis; format: functional
# A549 [4] = assay: Induction of apoptosis in human A549 cells assessed as connection disappearance at 10 uM after 48 hrs by Annexin V-FITC/propidium iodide staining based laser scanning confocal microscopic analysis; format: functional, cell-based
# A549 [5] = assay: Induction of apoptosis in human A549 cells assessed as nuclear enrichment at 10 uM after 48 hrs by Annexin V-FITC/propidium iodide staining based laser scanning confocal microscopic analysis; format: functional, cell-based
# A549 [6] = assay: Induction of apoptosis in human A549 cells assessed as membrane blebbing at 10 uM after 48 hrs by Annexin V-FITC/propidium iodide staining based laser scanning confocal microscopic analysis; format: functional, cell-based
# A549 [7] = assay: Induction of apoptosis in human A549 cells after 48 hrs by Annexin V-FITC/propidium iodide staining based flow cytometric analysis; format: functional, cell-based
# A549 [8] = assay: Induction of apoptosis in human A549 cells assessed as early apoptotic cells at 3 uM after 48 hrs by Annexin V-FITC/propidium iodide staining based flow cytometric analysis (reference value: 2.89%); format: functional, cell-based
# A549 [9] = assay: Induction of apoptosis in human A549 cells assessed as late apoptotic cells at 3 uM after 48 hrs by Annexin V-FITC/propidium iodide staining based flow cytometric analysis (reference value: 1.73%); format: functional, cell-based
# A549 [10] = assay: Induction of apoptosis in human A549 cells assessed as necrotic cells at 3 uM after 48 hrs by Annexin V-FITC/propidium iodide staining based flow cytometric analysis (reference value: 1.21%); format: functional, cell-based
# A549 [11] = assay: Induction of apoptosis in human A549 cells assessed as early apoptotic cells at 10 uM after 48 hrs by Annexin V-FITC/propidium iodide staining based flow cytometric analysis (reference value: 2.89%); format: functional, cell-based
# A549 [12] = assay: Induction of apoptosis in human A549 cells assessed as late apoptotic cells at 10 uM after 48 hrs by Annexin V-FITC/propidium iodide staining based flow cytometric analysis (reference value: 1.73%); format: functional, cell-based
# A549 [13] = assay: Induction of apoptosis in human A549 cells assessed as necrotic cells at 10 uM after 48 hrs by Annexin V-FITC/propidium iodide staining based flow cytometric analysis (reference value: 1.21%); format: functional, cell-based
# A549 [14] = assay: Upregulation of Bax mRNA expression in human A549 cells at 10 uM after 24 hrs by qRT-PCR analysis; format: functional, cell-based
# A549 [15] = assay: Downregulation of Bcl-2 mRNA expression in human A549 cells at 10 uM after 24 hrs by qRT-PCR analysis; format: functional, cell-based
# A549 [16] = assay: Upregulation of Bax protein level in human A549 cells at 3 to 10 uM after 24 hrs by Western blot analysis; format: functional, cell-based
# A549 [17] = assay: Downregulation of Bcl-2 protein level in human A549 cells at 3 to 10 uM after 24 hrs by Western blot analysis; format: functional, cell-based
# A549 [18] = assay: Induction of apoptosis in human A549 cells assessed as early apoptotic cells by Annexin V-FITC/propidium iodide staining based flow cytometric analysis (reference value: 1.43%); format: functional, cell-based
# A549 [19] = assay: Induction of apoptosis in human A549 cells assessed as late apoptotic cells by Annexin V-FITC/propidium iodide staining based flow cytometric analysis (reference value: 1.66%); format: functional, cell-based
# A549 [20] = assay: Induction of apoptosis in human A549 cells assessed as necrotic cells by Annexin V-FITC/propidium iodide staining based flow cytometric analysis (reference value: 0.96%); format: functional, cell-based
# A549 [21] = assay: Induction of apoptosis in human A549 cells assessed as early apoptotic cells in presence of z-VAD-fmk by Annexin V-FITC/propidium iodide staining based flow cytometric analysis (reference value: 1.43%); format: functional, cell-based
# A549 [22] = assay: Induction of apoptosis in human A549 cells assessed as late apoptotic cells in presence of z-VAD-fmk by Annexin V-FITC/propidium iodide staining based flow cytometric analysis (reference value: 1.66%); format: functional, cell-based
# A549 [23] = assay: Induction of apoptosis in human A549 cells assessed as necrotic cells in presence of z-VAD-fmk by Annexin V-FITC/propidium iodide staining based flow cytometric analysis (reference value: 0.96%); format: functional, cell-based
substance,measurement,setting,value
"5H-dibenzo[c,f][1,5]oxabismocin-12(7H)-yl nitrate",Activity,A549 [1],Active
same,Activity,A549 [2],Dose-dependent effect
same,Activity,Homo sapiens,Dose-dependent effect
same,Activity,SGC-7901,Dose-dependent effect
same,Activity,SW480,Dose-dependent effect
same,Activity,A549 [3],Active
same,Activity,A549 [4],Active
same,Activity,A549 [5],Active
same,Activity,A549 [6],Active
same,Activity,A549 [7],Dose-dependent effect
same,Activity,A549 [8],5.18%
same,Activity,A549 [9],4.16%
same,Activity,A549 [10],0.617%
same,Activity,A549 [11],17.4%
same,Activity,A549 [12],4.24%
same,Activity,A549 [13],6.68%
same,Activity,A549 [14],Active
same,Activity,A549 [15],Active
same,Activity,A549 [16],Active
same,Activity,A549 [17],Active
same,Activity,A549 [18],18.6%
same,Activity,A549 [19],10.2%
same,Activity,A549 [20],2.24%
same,Activity,A549 [21],3.19%
same,Activity,A549 [22],5.26%
same,Activity,A549 [23],2.66%
